For the assay, the target named is T1, Dopamine beta hydroxylase (Homo sapiens, UniProt P09172).
T1 construct: 125 μl of plasma; tissue Instituto Português do Sangue Transplantação; host or cells: human plasma from healthy donors
T1 sequence (P09172 40-617 limits assumed): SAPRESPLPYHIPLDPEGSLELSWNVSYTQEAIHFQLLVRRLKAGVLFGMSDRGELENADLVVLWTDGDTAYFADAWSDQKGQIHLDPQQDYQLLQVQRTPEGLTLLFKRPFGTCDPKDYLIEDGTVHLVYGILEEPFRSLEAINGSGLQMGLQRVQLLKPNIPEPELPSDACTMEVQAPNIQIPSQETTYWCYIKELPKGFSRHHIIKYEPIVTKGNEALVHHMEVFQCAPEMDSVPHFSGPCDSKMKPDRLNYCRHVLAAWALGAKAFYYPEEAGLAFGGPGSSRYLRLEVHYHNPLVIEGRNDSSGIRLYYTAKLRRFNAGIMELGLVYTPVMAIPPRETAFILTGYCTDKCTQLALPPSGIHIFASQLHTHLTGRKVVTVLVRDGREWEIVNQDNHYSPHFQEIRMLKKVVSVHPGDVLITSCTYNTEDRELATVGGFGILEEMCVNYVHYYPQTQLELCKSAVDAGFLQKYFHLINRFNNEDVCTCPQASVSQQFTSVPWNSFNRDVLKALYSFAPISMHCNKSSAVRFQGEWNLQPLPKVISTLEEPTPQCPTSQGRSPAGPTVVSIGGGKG
The experiment in a line: Dopamine beta hydroxylase activity in human plasma. In kind it is biochemical. The note with it: for Plasma (0.01 μM), activity in % of control: inhibitor 0.01 μM; for Plasma (0.1 μM), activity in % of control: inhibitor 0.1 μM. The method in brief: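 Octopamine production from tyramine over 45 min at 37° C, measured photometrically at 330 nm after SCX extraction and periodate oxidation against an octopamine standard curve, indicates plasma DβH activity. Compounds tested at final 10, 100 and 1000 nM in human plasma, pH 5.0 cofactor buffer, 10 min preincubation; results as % of control.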

As to `Cl.Fc1ccc(Cl)c(F)c1[C@@H]1Cc2c(CCc3cccnc3)[nH]c(=S)n2C1` [Example 215, (S)-6-(3-chloro-2,6-difluorophenyl)-1-(2-(pyridin-3-yl)ethyl)-2,5,6,7-tetrahydro-3H-pyrrolo[1,2-c]imidazole-3-thione Hydrochloride], the “Plasma (0.01 μM), activity in % of control” value is 74.3 % of control and the “Plasma (0.1 μM), activity in % of control” value is 34.2 % of control.
Take `Cn1c(CC(=O)N[C@@H]2CCOC2)c2n(c1=S)C[C@@H](c1cc(Cl)ccc1F)C2` [Example 246, 2-((R)-6-(5-chloro-2-fluorophenyl)-2-methyl-3-thioxo-2,5,6,7-tetrahydro-3H-pyrrolo[1,2-c]imidazol-1-yl)-N—((R)-tetrahydrofuran-3-yl)acetamide]: the “Plasma (0.01 μM), activity in % of control” value is 115.2 % of control and the “Plasma (0.1 μM), activity in % of control” value was 80.3 % of control.
As to `O=C(Cc1[nH]c(=S)n2c1C[C@H](c1c(F)c(F)cc(F)c1F)C2)NC1CCCCC1O` (stereo partly drawn) [Example 29, N-(2-hydroxycyclohexyl)-2-((R)-6-(2,3,5,6-tetrafluorophenyl)-3-thioxo-2,5,6,7-tetrahydro-3H-pyrrolo[1,2-c]imidazol-1-yl)acetamide], the “Plasma (0.01 μM), activity in % of control” value is on record as 72.5 % of control and the “Plasma (0.1 μM), activity in % of control” value is recorded as 29.1 % of control.
In the case of `O=C(Cc1[nH]c(=S)n2c1C[C@@H](c1c(F)ccc(Cl)c1F)C2)Nc1ccccn1` [Example 169, (S)-2-(6-(3-chloro-2,6-difluorophenyl)-3-thioxo-2,5,6,7-tetrahydro-3H-pyrrolo[1,2-c]imidazol-1-yl)-N-(pyridin-2-yl)acetamide], the “Plasma (0.01 μM), activity in % of control” value is reported as 59.3 % of control and the “Plasma (0.1 μM), activity in % of control” value is 17.1 % of control.
For the molecule `O=C(CCc1[nH]c(=S)n2c1C[C@H](c1c(F)c(F)cc(F)c1F)C2)N1CCOCC1` [Example 205, (R)-1-morpholino-3-(6-(2,3,5,6-tetrafluorophenyl)-3-thioxo-2,5,6,7-tetrahydro-3H-pyrrolo[1,2-c]imidazol-1-yl)propan-1-one], the “Plasma (0.01 μM), activity in % of control” value is recorded as 76.9 % of control and the “Plasma (0.1 μM), activity in % of control” value was 18.2 % of control.
Consider `Cn1c(CC(=O)NCc2cnccn2)c2n(c1=S)C[C@H](c1c(F)ccc(Cl)c1F)C2` [Example 328, (S)-2-(6-(3-chloro-2,6-difluorophenyl)-2-methyl-3-thioxo-2,5,6,7-tetrahydro-3H-pyrrolo[1,2-c]imidazol-1-yl)-N-(pyrazin-2-ylmethyl)acetamide], for which the “Plasma (0.01 μM), activity in % of control” value is listed as 63.1 % of control and the “Plasma (0.1 μM), activity in % of control” value is listed as 9.4 % of control.
For the molecule `O=C(Cc1[nH]c(=S)n2c1C[C@@H](c1c(F)ccc(Cl)c1F)C2)N[C@@H]1CCOC1` [Example 362, 2-((S)-6-(3-chloro-2,6-difluorophenyl)-3-thioxo-2,5,6,7-tetrahydro-3H-pyrrolo[1,2-c]imidazol-1-yl)-N—((R)-tetrahydrofuran-3-yl)acetamide], the “Plasma (0.01 μM), activity in % of control” value was 43.2 % of control and the “Plasma (0.1 μM), activity in % of control” value is reported as 11.8 % of control.
Turning to `Cn1c(CC(=O)NC2CCCC2C#N)c2n(c1=S)C[C@@H](c1c(F)ccc(F)c1F)C2` (stereo partly drawn) [Example 345, N-(2-cyanocyclopentyl)-2-((R)-2-methyl-3-thioxo-6-(2,3,6-trifluorophenyl)-2,5,6,7-tetrahydro-3H-pyrrolo[1,2-c]imidazol-1-yl)acetamide], the “Plasma (0.01 μM), activity in % of control” value is listed as 77.2 % of control and the “Plasma (0.1 μM), activity in % of control” value is reported as 40.3 % of control.
In the case of `Cn1c(CC(=O)NC2CC2)c2n(c1=S)C[C@@]1(c3cc(Br)ccc3F)C[C@@H]21` [Example 357, 2-((5aS,6aR)-5a-(5-bromo-2-fluorophenyl)-2-methyl-3-thioxo-2,3,5,5a,6,6a-hexahydrocyclopropa[3,4]pyrrolo[1,2-c]imidazol-1-yl)-N-cyclopropylacetamide], the “Plasma (0.01 μM), activity in % of control” value is 62.1 % of control and the “Plasma (0.1 μM), activity in % of control” value was 15.1 % of control.
As to `CN(C(=O)Cc1[nH]c(=S)n2c1C[C@@H](c1c(F)ccc(Cl)c1F)C2)C1CCOCC1` [Example 380, (S)-2-(6-(3-chloro-2,6-difluorophenyl)-3-thioxo-2,5,6,7-tetrahydro-3H-pyrrolo[1,2-c]imidazol-1-yl)-N-methyl-N-(tetrahydro-2H-pyran-4-yl)acetamide], the “Plasma (0.01 μM), activity in % of control” value was 74.9 % of control and the “Plasma (0.1 μM), activity in % of control” value is 27.4 % of control.
On to `Cn1c(CC(=O)NC2CCS(=O)(=O)CC2)c2n(c1=S)C[C@@H](c1c(F)ccc(F)c1F)C2` [Example 239, (R)—N-(1,1-dioxidotetrahydro-2H-thiopyran-4-yl)-2-(2-methyl-3-thioxo-6-(2,3,6-trifluorophenyl)-2,5,6,7-tetrahydro-3H-pyrrolo[1,2-c]imidazol-1-yl)acetamide], for which the “Plasma (0.01 μM), activity in % of control” value is recorded as 60.1 % of control and the “Plasma (0.1 μM), activity in % of control” value is 3.9 % of control.
The corresponding values for `CN(C(=O)Cc1[nH]c(=S)n2c1[C@@H]1C[C@]1(c1c(F)ccc(Cl)c1F)C2)C1CCOC1` (stereo partly drawn) [Example 396, 2-((5aS,6aR)-5a-(3-chloro-2,6-difluorophenyl)-3-thioxo-2,3,5,5a,6,6a-hexahydrocyclopropa[3,4]pyrrolo[1,2-c]imidazol-1-yl)-N-methyl-N-(tetrahydrofuran-3-yl)acetamide] are 66.9 % of control and 10.8 % of control.
For the molecule `O=C(Cc1[nH]c(=S)n2c1C[C@@H](c1c(F)ccc(Br)c1F)C2)NC1CCOCC1` [Example 410, (S)-2-(6-(3-bromo-2,6-difluorophenyl)-3-thioxo-2,5,6,7-tetrahydro-3H-pyrrolo[1,2-c]imidazol-1-yl)-N-(tetrahydro-2H-pyran-4-yl)acetamide], the “Plasma (0.01 μM), activity in % of control” value was 62.3 % of control and the “Plasma (0.1 μM), activity in % of control” value was 11.1 % of control.
The corresponding values for `CN(C(=O)Cc1c2n(c(=S)n1C)C[C@@H](c1c(F)ccc(F)c1F)C2)[C@@H]1CCOC1` [Example 455, N-methyl-2-((R)-2-methyl-3-thioxo-6-(2,3,6-trifluorophenyl)-2,5,6,7-tetrahydro-3H-pyrrolo[1,2-c]imidazol-1-yl)-N—((R)-tetrahydrofuran-3-yl)acetamide] are 131.0 % of control and 50.2 % of control.
In the case of `CN(C)C(=O)C1CCN(C(=O)Cc2c3n(c(=S)n2C)C[C@H](c2c(F)ccc(Br)c2F)C3)C1` (stereo partly drawn) [Example 453, 1-(2-((S)-6-(3-bromo-2,6-difluorophenyl)-2-methyl-3-thioxo-2,5,6,7-tetrahydro-3H-pyrrolo[1,2-c]imidazol-1-yl)acetyl)-N,N-dimethylpyrrolidine-3-carboxamide], the “Plasma (0.01 μM), activity in % of control” value is listed as 56.6 % of control and the “Plasma (0.1 μM), activity in % of control” value is 10.4 % of control.
Take `CCCNC(=O)Cc1[nH]c(=S)n2c1C[C@@H](c1c(F)ccc(Br)c1F)C2` [Example 97, (S)-2-(6-(3-bromo-2,6-difluorophenyl)-3-thioxo-2,5,6,7-tetrahydro-3H-pyrrolo[1,2-c]imidazol-1-yl)-N-propylacetamide]: the “Plasma (0.1 μM), activity in % of control” value is 22.7 % of control. Besides, where the note is “inhibitor 1 μM”, the “Plasma (1 μM), activity in % of control” value is given as 0.5 % of control.
`Cn1c(CC(=O)N2CC[C@H](C#N)C2)c2n(c1=S)C[C@H](c1c(F)ccc(Br)c1F)C2` [Example 450, (S)-1-(2-((S)-6-(3-bromo-2,6-difluorophenyl)-2-methyl-3-thioxo-2,5,6,7-tetrahydro-3H-pyrrolo[1,2-c]imidazol-1-yl)acetyl)pyrrolidine-3-carbonitrile]: the “Plasma (0.01 μM), activity in % of control” value is given as 32.6 % of control and the “Plasma (0.1 μM), activity in % of control” value is 2.3 % of control.
As to `Fc1ccc(Cl)cc1[C@]12C[C@H]1c1c(CCNc3cccnc3)[nH]c(=S)n1C2` [Example 197, (5aS,6aR)-5a-(5-chloro-2-fluorophenyl)-1-(2-(pyridin-3-ylamino)ethyl)-5,5a,6,6a-tetrahydrocyclopropa[3,4]pyrrolo[1,2-c]imidazole-3(2H)-thione], the “Plasma (0.01 μM), activity in % of control” value is given as 75.9 % of control and the “Plasma (0.1 μM), activity in % of control” value was 29.4 % of control.
As for `Cn1c(CC(=O)N2CCOCC2)c2n(c1=S)C[C@H](c1c(F)ccc(F)c1F)C2` [Example 411, (S)-2-(2-methyl-3-thioxo-6-(2,3,6-trifluorophenyl)-2,5,6,7-tetrahydro-3H-pyrrolo[1,2-c]imidazol-1-yl)-1-morpholinoethan-1-one], the “Plasma (0.01 μM), activity in % of control” value is listed as 104.2 % of control and the “Plasma (0.1 μM), activity in % of control” value was 78.6 % of control.

Source of the values: patent US11434242B2, “Dopamine-b-hydroxylase inhibitors” (BIAL-PORTELA & Cª, S.A., priority 2017, dated 2022).
